According to paper PMC10116596 (Biochemistry, 2023):

Molecular target: LcrH1–168 (Yersinia pestis, UniProt P21207)
Assay type: binding, Y. pestis
Conditions: pH 7.8

Sequence of LcrH1–168 (P21207 whole entry, looked up): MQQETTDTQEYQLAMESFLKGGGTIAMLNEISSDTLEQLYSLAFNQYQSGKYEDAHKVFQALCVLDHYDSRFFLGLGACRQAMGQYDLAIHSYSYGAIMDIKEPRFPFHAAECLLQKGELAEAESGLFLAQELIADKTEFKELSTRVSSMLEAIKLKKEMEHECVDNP

| Substance | ΔH | –TΔS [kcal/mol] |
| --- | --- | --- |
| Ac-QGVQLPAPLA-NH2 [YopB48–57] | –44 ± 15 kJ/mol | 5.5 ± 3.59 |
| Ac-QVPELIKPSQ-NH2 [YopD56–65] | –51 ± 2 kJ/mol | 6.69 ± 0.48 |
